Source: US10844017B2, “Biaryl compound, preparation method and use thereof” (FUDAN UNIVERSITY, priority 2017, dated 2020)

What was measured:
[1] = target: T1, RORγ receptor (B-RORγ LBD / Bioin-SRC1) (Homo sapiens, UniProt P51449); test: Determination of agonistic activities on RORγ receptors in vitro (dual FRET); format: biochemical; conditions: average of at least two independent experiments
T1 construct: 40 nM B-RORγ LBD solution
T1 sequence (P51449 269-508 limits assumed): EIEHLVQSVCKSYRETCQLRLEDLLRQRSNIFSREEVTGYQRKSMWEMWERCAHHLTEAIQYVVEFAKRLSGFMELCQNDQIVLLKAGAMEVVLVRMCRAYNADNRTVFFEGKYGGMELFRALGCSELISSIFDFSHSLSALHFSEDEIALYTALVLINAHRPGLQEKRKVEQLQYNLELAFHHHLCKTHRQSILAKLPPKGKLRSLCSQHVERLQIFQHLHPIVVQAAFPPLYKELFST
T1 sequence (Q15788 676-700 partner limits assumed): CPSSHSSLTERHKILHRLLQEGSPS
Method: Determination of Agonistic Activities of Compounds on RORγ Receptors In Vitro The agonistic activities of compounds described herein on RORγ receptor were determined by dual fluorescence resonance energy transfer (dual FRET) experiments. The agonistic activity was expressed by half maximum effect concentration (EC50).
1) Preparation of RORγ Assay Buffer
100 mL of buffer solution was well mixed with […] DTT for use.
2) Preparation of Solutions of Compounds
3) Preparation of protein mixtures a) 40 nM B-RORγ LBD solution was mixed well with 20 nM SA-APC solution and incubated for 15 minutes at room temperature. Then the resulting mixture was further mixed well with 400 nM Biotin and incubated for another 10 minutes at room temperature. […]
b) 40 nM Bioin-SRC1 solution was mixed well with 10 nM SA-eu solution and was incubated for 15 minutes at room temperature. Then the resulting mixture was further mixed well with 200 nM Biotin and was incubated for another 10 minutes at room temperature. […]
d) A mixture (25 μL) of B-RORγ LBD/SA-APC and Bioin-SRC1/SA-eu together with a test compound was added to one of the wells of a 384-well plate, and then the plate was centrifuged for one minute at 1000 rpm, and incubated at room temperature for one hour. The data were read on an Envision microplate detector and EC50 values were calculated.

[2] = tested on: Mouse lymphoma EL4 cells transfected with RORγt plasmid; test: Determination of the activation rate on mouse lymphoma EL4 (IL-17 generation); format: cell-based; conditions: compound at 2 μM, 24 hours, PMA/ionomycin stimulation 4 hours, flow cytometry, read-out: +act % (activation of IL-17 generated by EL4 cells)
Method: Determination of the Activation Rate on Mouse Lymphoma EL4
Mouse lymphoma EL4 cells transfected with RORγt plasmid were cultured at 37° C. under an atmosphere with 5% CO2, with a test compound added simultaneously. After 24 hours, the generation efficiency of IL-17A was analyzed. Before collection of cells, PMA at 50 ng/mL and ionomycin at 500 ng/mL were added for stimulation for 4 hours. The proportion of IL-17 was detected by intracellular staining and flow cytometry. […] The activation rate of IL-17 generated by EL4 cells for the compound was measured at a concentration of 2 μM.

| SMILES | EC50 [1] | activation at 2 µM [2] |
| --- | --- | --- |
| CC(C)Cc1ccc(-c2c(Cl)cc(NC(=O)C3CCCCC3)cc2Cl)cc1C#N [Example 2, N-(2,6-Dichloro-3′-cyano-4′-isobutyl-[1,1′-biphenyl]-4-yl)cyclohexanecarboxamide] | 10 to 50 nM | 20 to 50% |
| CC(C)Cc1ccc(-c2c(Cl)cc(NC(=O)CC3CCCCC3)cc2Cl)cc1C#N [Example 5, (2-Cyclohexyl-N-(2,6-dichloro-3′-cyano-4′-isobutyl-[1,1′-biphenyl]-4-yl)acetamide)] | 10 to 50 nM | < 20% |
| CC(C)Cc1ccc(-c2c(Cl)cc(NC(=O)CC3CCOCC3)cc2Cl)cc1C#N [Example 6, N-(2,6-Dichloro-3′-cyano-4′-isobutyl-[1,1′-biphenyl]-4-yl)-2-(tetrahydro-2H-pyran-4-yl) acetamide] | 10 to 50 nM | 20 to 50% |
| CC(C)Cc1ccc(-c2c(Cl)cc(NC(=O)Cc3ccn(C)n3)cc2Cl)cc1C#N [Example 9A, N-(2,6-Dichloro-3′-cyano-4′-isobutyl-[1,1′-biphenyl]-4-yl)-2-(1-methyl-1H-pyrazol-3-yl)acetamide] | 10 to 50 nM | < 20% |
| CC(C)Cc1ccc(-c2c(Cl)cc(NC(=O)Cc3ccccc3C#N)cc2Cl)cc1C#N [Example 11, 2-(2-Cyanophenyl)-N-(2,6-dichloro-3′-cyano-4′-isobutyl-[1,1′-biphenyl]-4-yl)acetamide] | 10 to 50 nM | < 20% |
| CC(C)Cc1ccc(-c2c(Cl)cc(NC(=O)Cc3ccccn3)cc2Cl)cc1C#N [Example 13, N-(2,6-Dichloro-3′-cyano-4′-isobutyl-[1,1′-biphenyl]-4-yl)-2-(pyridin-2-yl)acetamide] | 10 to 50 nM | < 20% |
| CC(C)Cc1ccc(-c2c(Cl)cc(NC(=O)Cc3ccc(C(=O)O)cc3)cc2Cl)cc1C#N [Example 24, 4-(2-((2,6-Dichloro-3′-cyano-4′-isobutyl-[1,1′-biphenyl]-4-yl)amino)-2-oxoethyl)benzoic acid] | < 10 nM | < 20% |
| CCS(=O)(=O)c1ccc(CC(=O)Nc2cc(Cl)c(-c3ccc(CC(C)C)cc3)c(Cl)c2)cc1 [Example 26, N-(2,6-Dichloro-4′-isobutyl-[1,1′-biphenyl]-4-yl)-2-(4-(ethylsulfonyl)phenyl)acetamide] | 10 to 50 nM | < 20% |
| CCS(=O)(=O)c1ccc(CC(=O)Nc2cc(Cl)c(-c3ccc(CN(C)C)c(C#N)c3)c(Cl)c2)cc1 [Example 35, N-(2,6-Dichloro-3′-cyano-4′-((dimethylamino)methyl)-[1,1′-biphenyl]-4-yl)-2-(4-(ethylsulfonyl)phenyl)acetamide] |  | > 50% |
| CCN(CC)Cc1ccc(-c2c(Cl)cc(NC(=O)Cc3ccc(S(=O)(=O)CC)cc3)cc2Cl)cc1C#N [Example 37, N-(2,6-Dichloro-3′-cyano-4′-((diethylamino)methyl)-[1,1′-biphenyl]-4-yl)-2-(4-(ethylsulfonyl)phenyl)acetamide] | 10 to 50 nM | 20 to 50% |
| CCS(=O)(=O)c1ccc(CC(=O)Nc2cc(Cl)c(-c3ccc(C=C(C)C)c(C#N)c3)c(Cl)c2)cc1 [Example 40, N-(2,6-Dichloro-3′-cyano-4′-(2-methylprop-1-en-1-yl)-[1,1′-biphenyl]-4-yl)-2-(4-(ethylsulfonyl)phenyl)acetamide] |  | > 50% |
| CCS(=O)(=O)c1ccc(CNC(=O)c2cc(Cl)c(-c3ccc(CC(C)C)c(C#N)c3)c(Cl)c2)cc1 [Example 47] |  | < 20% |
| CCS(=O)(=O)c1ccc(CNC(=O)c2cc(Cl)c(-c3ccc(CC(C)C)c(C#N)c3)c(Cl)c2)nc1 [Example 49, 2,6-Dichloro-3′-cyano-N-((5-(ethylsulfonyl)pyridin-2-yl)methyl)-4′-isobutyl-[1,1′-biphenyl]-4-carboxamide] | 50 to 100 nM | < 20% |
| CCS(=O)(=O)c1ccc(CNC(=O)Nc2cc(Cl)c(-c3ccc(CC(C)C)c(C#N)c3)c(Cl)c2)cc1 [Example 53, 1-(2,6-Dichloro-3′-cyano-4′-isobutyl-[1,1′-biphenyl]-4-yl)-3-(4-(ethylsulfonyl)benzyl)urea] |  | 20 to 50% |
| CCS(=O)(=O)c1ccc(CNC(=O)Nc2cc(Cl)c(-c3ccc(CC(C)C)c(C#N)c3)c(Cl)c2)nc1 [Example 55, 1-(2,6-Dichloro-3′-cyano-4′-isobutyl-[1,1′-biphenyl]-4-yl)-3-((5-(ethylsulfonyl)pyridin-2-yl)methyl)urea] | 10 to 50 nM | 20 to 50% |
| CC(C)Cc1ccc(-c2c(Cl)cc(NC(=O)NCc3ccc(S(C)(=O)=O)cn3)cc2Cl)cc1C#N [Example 56, 1-(2,6-Dichloro-3′-cyano-4′-isobutyl-[1,1′-biphenyl]-4-yl)-3-((5-(methylsulfonyl)pyridin-2-yl)methyl)urea] | 10 to 50 nM |  |
| CC(C)Cc1ccc(-c2c(Cl)cc(NC(=O)NCc3ccc(CC(=O)O)cc3)cc2Cl)cc1C#N [Example 57, 2-(4-((3-(2,6-Dichloro-3′-cyano-4′-isobutyl-[1,1′-biphenyl]-4-yl)ureido)methyl)phenyl)acetic acid] | 10 to 50 nM |  |
| CCS(=O)(=O)c1ccc(CCNc2cc(Cl)c(-c3ccc(CC(C)C)c(C#N)c3)c(Cl)c2)cc1 [Example 60, 2′,6′-Dichloro-4′-((4-(ethylsulfonyl)phenethyl)amino)-4-isobutyl-[1,1′-biphenyl]-3-carbonitrile] | 10 to 50 nM | 20 to 50% |

Further lines, with some results ahead:

| EC50 [1] | SMILES | activation at 2 µM [2] |
| --- | --- | --- |
| 10 to 50 nM | CCN(CC)Cc1ccc(-c2c(Cl)cc(NC(=O)Cc3ccc(S(C)(=O)=O)cc3)cc2Cl)cc1C#N [Example 33, N-(2,6-Dichloro-3′-cyano-4′-((diethylamino)methyl)-[1,1′-biphenyl]-4-yl)-2-(4-(methylsulfonyl)phenyl)acetamide] | 20 to 50% |
| 10 to 50 nM | CN(C)Cc1ccc(-c2c(Cl)cc(NC(=O)Cc3ccc(S(C)(=O)=O)cc3)cc2Cl)cc1C#N [Example 34, N-(2,6-Dichloro-3′-cyano-4′-((dimethylamino)methyl)-[1,1′-biphenyl]-4-yl)-2-(4-(methylsulfonyl)phenyl)acetamide] | > 50% |
| 500 to 1000 nM | CN(C)Cc1ccc(-c2c(Cl)cc(C(=O)NCc3ccc(S(C)(=O)=O)cc3)cc2Cl)cc1C#N [Example 52, 2,6-Dichloro-3′-cyano-4′-((dimethylamino)methyl)-N-(4-(methylsulfonyl)benzyl)-[1,1′-biphenyl]-4-carboxamide] |  |
| 10 to 50 nM | CC(C)Cc1ccc(-c2c(Cl)cc(NC(=O)NCc3ccc(S(C)(=O)=O)cc3)cc2Cl)cc1C#N [Example 54, 1-(2,6-Dichloro-3′-cyano-4′-isobutyl-[1,1′-biphenyl]-4-yl)-3-(4-(methylsulfonyl)benzyl)urea] |  |
| 10 to 50 nM | CCS(=O)(=O)c1ccc(CNC(=O)Nc2cc(Cl)c(-c3ccc(CN(C)C)c(C#N)c3)c(Cl)c2)cc1 [Example 58, 1-(2,6-Dichloro-3′-cyano-4′-((dimethylamino)methyl)-[1,1′-biphenyl]-4-yl)-3-(4-(ethylsulfonyl)benzyl)urea] | 20 to 50% |
| 10 to 50 nM | CN(C)Cc1ccc(-c2c(Cl)cc(NC(=O)NCc3ccc(S(C)(=O)=O)cc3)cc2Cl)cc1C#N [Example 59, 1-(2,6-Dichloro-3′-cyano-4′-((dimethylamino)methyl)-[1,1′-biphenyl]-4-yl)-3-(4-(methylsulfonyl)benzyl)urea] |  |
| 10 to 50 nM | CC(C)Cc1ccc(-c2c(Cl)cc(NCCc3ccc(S(C)(=O)=O)cc3)cc2Cl)cc1C#N [Example 61, 2′,6′-Dichloro-4-isobutyl-4′-((4-(methylsulfonyl)phenethyl)amino)-[1,1′-biphenyl]-3-carbonitrile] |  |
| < 10 nM | CCS(=O)(=O)c1ccc(CCNc2cc(Cl)c(-c3ccc(CN(C)C)c(C#N)c3)c(Cl)c2)cc1 [Example 62, 2′,6′-Dichloro-4-((dimethylamino)methyl)-4′((4-(ethylsulfonyl)phenethyl)amino)-[1,1′-biphenyl]-3-carbonitrile] | 20 to 50% |
| < 10 nM | CN(C)Cc1ccc(-c2c(Cl)cc(NCCc3ccc(S(C)(=O)=O)cc3)cc2Cl)cc1C#N [Example 63, 2′,6′-Dichloro-4-((dimethylamino)methyl)-4′-((4-(methylsulfonyl)phenethyl)amino)-[1,1′-biphenyl]-3-carbonitrile] |  |
